We go through one compound from ChEMBL document CHEMBL1122856, “Study on the inhibition of adenosine deaminase” (J Med Chem, 1985).

The assay deals with T1, Adenosine deaminase (Bos taurus, UniProt P56658).
T1 sequence (P56658 whole entry): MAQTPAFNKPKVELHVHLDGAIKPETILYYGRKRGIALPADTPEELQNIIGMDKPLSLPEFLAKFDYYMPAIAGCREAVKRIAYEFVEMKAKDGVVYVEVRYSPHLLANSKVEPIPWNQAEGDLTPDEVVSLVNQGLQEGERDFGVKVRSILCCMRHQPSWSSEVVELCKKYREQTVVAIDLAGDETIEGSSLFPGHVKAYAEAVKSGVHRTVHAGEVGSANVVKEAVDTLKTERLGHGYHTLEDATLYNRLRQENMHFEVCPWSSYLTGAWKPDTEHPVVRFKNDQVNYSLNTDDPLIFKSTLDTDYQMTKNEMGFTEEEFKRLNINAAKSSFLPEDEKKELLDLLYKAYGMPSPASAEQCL
The assay can be described thus: Ability to inhibit the deamination of adenosine by calf intestine adenosine deaminase.

In the case of `Cc1c([C@@H](C)O)ncn1C1O[C@H](CO)[C@@H](O)[C@H]1O` (stereo partly specified), the Ki amounted to 61 µM.

In general, Ki refers to a dissociation constant, usually derived from enzyme kinetics or from competition with a known ligand. The low end stands for tighter binding, the high end for weaker binding.
